Source: the NIST ThermoML archive (doi:10.1021/je900661c)
Where “and” joins values, the source holds several entries; their conditions need not be identical. Equal entries are not always repeated. ± gives the expanded uncertainty stated by the source.

Assay: molar heat capacity at constant pressure
Conditions: 5000 kPa, Liquid, thermal relaxation

FCF [difluoromethane]
molar heat capacity at constant pressure (310 K): 106.65 ± 5.7 J/K/mol | molar heat capacity at constant pressure (315 K): 109.77 ± 5.7 J/K/mol | molar heat capacity at constant pressure (320 K): 113.41 ± 5.7 J/K/mol | molar heat capacity at constant pressure (325 K): 119.65 ± 6.2 J/K/mol | molar heat capacity at constant pressure (330 K): 125.9 ± 6.8 J/K/mol | molar heat capacity at constant pressure (335 K): 138.9 ± 7.3 J/K/mol | molar heat capacity at constant pressure (340 K): 164.39 ± 8.3 J/K/mol

CC(F)(F)F [1,1,1-trifluoroethane]
molar heat capacity at constant pressure (310 K): 136.15 ± 6.7 J/K/mol | molar heat capacity at constant pressure (315 K): 140.35 ± 7.6 J/K/mol | molar heat capacity at constant pressure (320 K): 145.39 ± 7.6 J/K/mol | molar heat capacity at constant pressure (325 K): 150.43 ± 7.6 J/K/mol | molar heat capacity at constant pressure (330 K): 155.47 ± 8.4 J/K/mol | molar heat capacity at constant pressure (335 K): 162.2 ± 8.4 J/K/mol | molar heat capacity at constant pressure (340 K): 173.96 ± 9.2 J/K/mol | molar heat capacity at constant pressure (345 K): 189.93 ± 10 J/K/mol and 192.45 ± 10 J/K/mol | molar heat capacity at constant pressure (350 K): 224.39 ± 12 J/K/mol

FC(F)C(F)(F)F [pentafluoroethane]
molar heat capacity at constant pressure (310 K): 154.83 ± 8.4 J/K/mol | molar heat capacity at constant pressure (315 K): 159.63 ± 8.4 J/K/mol | molar heat capacity at constant pressure (320 K): 163.23 ± 8.4 J/K/mol | molar heat capacity at constant pressure (325 K): 171.63 ± 8.4 J/K/mol | molar heat capacity at constant pressure (330 K): 182.43 ± 9.6 J/K/mol and 183.63 ± 9.6 J/K/mol | molar heat capacity at constant pressure (335 K): 193.23 ± 9.6 J/K/mol | molar heat capacity at constant pressure (340 K): 217.24 ± 11 J/K/mol and 212.44 ± 11 J/K/mol | molar heat capacity at constant pressure (345 K): 242.44 ± 13 J/K/mol | molar heat capacity at constant pressure (350 K): 282.05 ± 14 J/K/mol
